Measurements as given in PubChem BioAssay AID200 (DTP/NCI, 2004).
Several values for one entry are separate records, joined by “and”; a condition that tells them apart may be missing. Identical values can stand only once. Inconclusive results and toxic doses are left out. Where a SMILES comes first, the peptide text is derived from it. The star is where a group is joined. Cbz = O=C(OCc1ccccc1)*

System: B6C3F1 mice, B16 melanoma ip, median survival T/C
Experiment: NCI In Vivo Anticancer Drug Screen. Data for tumor model B16 Melanoma (intraperitoneal) in B6C3F1 mice
Details: endpoint: median survival time, higher = longer survival
How it was run: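 Mice bearing transplanted tumor were dosed with compound or vehicle, and survival was recorded. Activity is expressed as the treated-group measurement (T) divided by the vehicle control measurement (C).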

[1] = dose: 3.12 mg/kg/injection, schedule: Q01DX009 (ip), vehicle: saline with Tween-80
[2] = dose: 6.25 mg/kg/injection, schedule: Q01DX009 (ip), vehicle: saline with Tween-80
[3] = dose: 12.5 mg/kg/injection, schedule: Q01DX009 (ip), vehicle: saline with Tween-80
[4] = dose: 25.0 mg/kg/injection, schedule: Q01DX009 (ip), vehicle: saline with Tween-80
[5] = dose: 50.0 mg/kg/injection, schedule: Q01DX009 (ip), vehicle: saline with Tween-80
[6] = dose: 25.0 mg/kg/injection, schedule: Q01DX009 (ip), vehicle: saline
[7] = dose: 50.0 mg/kg/injection, schedule: Q01DX009 (ip), vehicle: saline
[8] = dose: 100.0 mg/kg/injection, schedule: Q01DX009 (ip), vehicle: saline

With `COc1cccc2c1C(=O)c1c(O)c3c(c(O)c1C2=O)C[C@@](O)(C(C)O)C[C@@H]3OC1CC(N2CCOCC2)C(O)C(C)O1` (stereo partly drawn) the T/C (dose: 0.06 mg/kg/injection, schedule: Q01DX001 (ip), vehicle: water) was 111 % of control, the T/C (dose: 0.13 mg/kg/injection, schedule: Q01DX001 (ip), vehicle: water) was 115 % of control and the T/C (dose: 62.5 micrograms/kg/injection, schedule: Q01DX001 (ip), vehicle: water) was 107 % of control. For the same molecule, the T/C (dose: 125.0 micrograms/kg/injection, schedule: Q01DX001 (ip), vehicle: water) was 106 % of control and the T/C (dose: 250.0 micrograms/kg/injection, schedule: Q01DX001 (ip), vehicle: water) was 120 % of control.

For `CSc1ccc2c(c1)C(N1CCN(C)CC1)Cc1ccccc1S2` (stereo not drawn), the T/C (dose: 1.56 mg/kg/injection, schedule: Q01DX009 (ip), vehicle: saline with Tween-80) was 105 % of control, the T/C [1] was 108 % of control and the T/C [2] was 105 % of control. The T/C [3] was 98 % of control, the T/C [4] was 94 % of control and the T/C [5] was 88 % of control.

With `CC(=O)O[C@@H]1C(=O)C=C(C)[C@@H]2[C@@H](OC(=O)C=C(C)C)[C@H]3OC(=O)C[C@H]4[C@@H](C)[C@@H](O)[C@]5(O)OC[C@]34[C@H]5[C@@]12C` the T/C (dose: 1.0 mg/kg/injection, schedule: Q01DX005 (ip), vehicle: distilled water + Tween-80) was 163 % of control, the T/C (dose: 2.0 mg/kg/injection, schedule: Q01DX005 (ip), vehicle: distilled water + Tween-80) was 160 % of control and the T/C (dose: 4.0 mg/kg/injection, schedule: Q01DX009 (ip), vehicle: distilled water + Tween-80) was 155 % of control. The T/C (dose: 8.0 mg/kg/injection, schedule: Q01DX005 (ip), vehicle: distilled water + Tween-80) was 156 % of control and the T/C (dose: 8.0 mg/kg/injection, schedule: Q01DX009 (ip), vehicle: distilled water + Tween-80) was 162 % of control.

In the case of `CN(C)c1nc(N(C)C)nc(N(C)C)n1`, the T/C [3] is reported as 88 % of control.

`CC(C)(C[NH-])C[NH-].[Cl][Pt+2][Cl]` was tested, and the T/C (dose: 0.25 mg/kg/injection, schedule: Q01DX009 (ip), vehicle: water) was 111 % of control, the T/C (dose: 0.5 mg/kg/injection, schedule: Q01DX009 (ip), vehicle: water) was 123 % of control and the T/C (dose: 2.0 mg/kg/injection, schedule: Q01DX009 (ip), vehicle: water) was 175 % of control. The T/C (dose: 2.0 mg/kg/injection, schedule: Q04DX003 (ip), vehicle: water) was 168 % of control and the T/C (dose: 4.0 mg/kg/injection, schedule: Q04DX003 (ip), vehicle: water) was 200 % of control.

`CN1[C@@H](CC(=O)c2ccccc2)CCC[C@H]1CC(=O)c1ccccc1` was tested, and the T/C [6] was 104 % of control, the T/C [7] was 112 % of control and the T/C [8] was 98 % of control.

For `Nc1nnc[se]1`, the T/C (dose: 3.0 mg/kg/injection, schedule: Q01DX009 (ip), vehicle: saline with Tween-80) was 98 % of control, the T/C [1] was 101 % of control and the T/C [2] was 101 % of control and 102 % of control. For the same molecule, the T/C (dose: 12.0 mg/kg/injection, schedule: Q01DX009 (ip), vehicle: saline with Tween-80) was 103 % of control, the T/C [3] was 109 % of control and 102 % of control and the T/C [4] was 108 % of control (2×) and 105 % of control. For the same molecule, the T/C [5] was 108 % of control and 115 % of control.

`COC1C(OC(=O)/C=C/C=C/C=C/C=C/C(=O)O)CCC2(CO2)C1C1(C)OC1CC=C(C)C` (stereo not drawn) was tested, and the T/C [6] was 117 % of control, the T/C [7] was 113 % of control and the T/C [8] was 119 % of control. The T/C (dose: 200.0 mg/kg/injection, schedule: Q01DX009 (ip), vehicle: saline) was 113 % of control.

In the case of `Clc1ncnc2c1ncn2C1CCCO1` (stereo not drawn), the T/C [6] is reported as 93 % of control, the T/C [7] is reported as 99 % of control and the T/C [8] is reported as 88 % of control and 94 % of control.

`CCCC(=O)O.CCCC(=O)O.CCCC(=O)O.CCCC(=O)O.[Rh].[Rh]` was tested, and the T/C (dose: 0.03 mg/kg/injection, schedule: Q01DX009 (ip), vehicle: saline + alcohol) was 100 % of control and 101 % of control, the T/C (dose: 0.06 mg/kg/injection, schedule: Q01DX009 (ip), vehicle: saline + alcohol) was 103 % of control and 104 % of control and the T/C (dose: 0.12 mg/kg/injection, schedule: Q01DX009 (ip), vehicle: saline + alcohol) was 100 % of control and 107 % of control. The T/C (dose: 0.25 mg/kg/injection, schedule: Q01DX009 (ip), vehicle: saline + alcohol) was 98 % of control and 101 % of control, the T/C (dose: 0.5 mg/kg/injection, schedule: Q01DX009 (ip), vehicle: saline + alcohol) was 101 % of control and 104 % of control and the T/C (dose: 1.0 mg/kg/injection, schedule: Q01DX009 (ip), vehicle: saline + alcohol) was 108 % of control.

For `O=C(NC(Cc1cnc[nH]1)C(=O)NC(Cc1ccc(O)cc1)C(=O)O)OCc1ccccc1` (stereo not drawn) (Cbz-His-Tyr-OH; configuration not given here), the T/C (dose: 100.0 mg/kg/injection, schedule: Q01DX009 (ip), vehicle: Klucel (hydroxypropylcellulose) (HPC)) was 102 % of control, the T/C (dose: 200.0 mg/kg/injection, schedule: Q01DX009 (ip), vehicle: Klucel (hydroxypropylcellulose) (HPC)) was 103 % of control and the T/C (dose: 400.0 mg/kg/injection, schedule: Q01DX009 (ip), vehicle: Klucel (hydroxypropylcellulose) (HPC)) was 110 % of control.
